Measured values from ChEMBL document CHEMBL1201862, “PubChem BioAssay data set” (2004).
The source made the active and inactive calls.

Tests used:
[1] = test system: HEK293; test: inhibitors of LMP1-driven NF-kB reporter, dose response, cell-based, HEK293, luciferase, cherry-pick (AID 588343); format: functional; conditions: Homo sapiens
[2] = target: Cytochrome P450 3A4 (Homo sapiens, UniProt P08684);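 also: CYP3A4 tested as one member of a cytochrome P450 panel screen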
[3] = target: Cytochrome P450 2C19 (Homo sapiens, UniProt P33261); test: Cytochrome panel assay with activity outcomes. Panel member name: p450-cyp2c19 Compounds with AC50 equal or less than 10 uM are considered active; format: functional; conditions: read-out: AC50
[4] = target: T1, Cytochrome P450 1A2 (Homo sapiens, UniProt P05177);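 also: PubChem cytochrome P450 panel assay, CYP1A2 panel member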
T1 sequence (P05177 whole entry): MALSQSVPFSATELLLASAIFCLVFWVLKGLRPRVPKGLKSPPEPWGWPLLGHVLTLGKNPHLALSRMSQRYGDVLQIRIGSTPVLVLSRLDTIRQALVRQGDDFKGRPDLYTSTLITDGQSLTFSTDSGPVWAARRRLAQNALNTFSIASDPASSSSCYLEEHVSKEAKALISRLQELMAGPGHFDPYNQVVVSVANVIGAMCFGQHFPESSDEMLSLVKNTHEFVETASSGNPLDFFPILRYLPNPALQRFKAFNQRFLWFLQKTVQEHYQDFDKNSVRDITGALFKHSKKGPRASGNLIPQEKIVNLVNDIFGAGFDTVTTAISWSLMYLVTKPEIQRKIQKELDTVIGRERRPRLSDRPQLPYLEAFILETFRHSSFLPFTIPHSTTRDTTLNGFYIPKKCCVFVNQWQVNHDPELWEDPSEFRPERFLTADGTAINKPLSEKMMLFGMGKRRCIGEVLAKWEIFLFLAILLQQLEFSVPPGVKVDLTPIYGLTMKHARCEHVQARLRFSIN

[5] = target: Cytochrome P450 2C9 (Homo sapiens, UniProt P11712)
[6] = cytotoxicity in MIN6 insulinoma cells, dose response, cytotoxicity control, cell-based, mouse insulinoma (AID 2122); format: functional;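 also: confirmatory high-throughput counterscreen run to flag cytotoxic compounds; mouse MIN-6 beta cells carrying an insulin promoter eGFP reporter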
[7] = target: T2, Corticotropin-releasing factor receptor 2/Corticotropin-releasing factor-binding protein (Homo sapiens, UniProt P24387+Q13324); test: activators of CRF receptor 2 with binding protein – uHTS hits, confirmation (AID 602473); format: functional; conditions: read-out: EC50_Mean
T2 sequence (Q13324 whole entry): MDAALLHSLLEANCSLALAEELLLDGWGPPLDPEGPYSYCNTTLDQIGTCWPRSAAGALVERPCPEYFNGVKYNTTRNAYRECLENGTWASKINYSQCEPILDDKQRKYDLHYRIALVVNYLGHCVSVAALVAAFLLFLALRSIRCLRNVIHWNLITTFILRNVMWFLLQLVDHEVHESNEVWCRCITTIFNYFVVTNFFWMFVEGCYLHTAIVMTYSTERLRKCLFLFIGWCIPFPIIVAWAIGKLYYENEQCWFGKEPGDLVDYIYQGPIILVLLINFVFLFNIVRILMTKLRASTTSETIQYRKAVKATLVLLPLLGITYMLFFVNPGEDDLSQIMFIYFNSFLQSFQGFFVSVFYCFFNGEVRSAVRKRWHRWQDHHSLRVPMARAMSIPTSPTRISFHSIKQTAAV
T2 sequence (P24387 whole entry): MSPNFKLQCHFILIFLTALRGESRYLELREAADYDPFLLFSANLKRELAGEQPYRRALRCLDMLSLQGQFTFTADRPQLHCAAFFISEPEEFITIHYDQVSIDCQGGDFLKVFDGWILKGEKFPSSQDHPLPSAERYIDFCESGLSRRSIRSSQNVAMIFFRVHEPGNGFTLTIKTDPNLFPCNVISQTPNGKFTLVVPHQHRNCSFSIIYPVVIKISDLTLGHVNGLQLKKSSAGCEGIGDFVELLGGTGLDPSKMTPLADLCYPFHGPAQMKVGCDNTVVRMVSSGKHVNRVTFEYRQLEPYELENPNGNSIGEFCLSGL

[8] = insulin promoter down-regulators in MIN6 cells, imaging, high-content screening, mouse beta cells (AID 1628); format: functional
[9] = control 3'UTR Renilla luciferase suppression, dose response, counter-screen for Shn3 inhibitor project, cell-based, Clone20-Shn3RL, cherry-picked (AID 624133); format: functional
[10] = HepG2 cell cytotoxicity, dose response, cytotoxicity control for Shn3 inhibitor project, CellTiter-Glo, cherry-picked (AID 624134); format: functional, cell-based
[11] = Shn3 3'UTR reporter inhibitors, dose response, cell-based, Clone20 osteoblasts, firefly luciferase, cherry-picked (AID 624132); format: functional;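 also: firefly luciferase luminescence from reporter carrying the Shn3 3'UTR in osteoblasts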
[12] = target: T3, Streptokinase A (Streptococcus pyogenes serotype M1, UniProt P10520); test: S. pyogenes streptokinase expression inhibitors, potency, dose response, plasminogen activation absorbance, OD405 (AID 1914); format: functional, Streptococcus pyogenes M1 GAS;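 also: secreted streptokinase activity via plasminogen activation per viability signal from cell pellet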
T3 sequence (P10520 whole entry): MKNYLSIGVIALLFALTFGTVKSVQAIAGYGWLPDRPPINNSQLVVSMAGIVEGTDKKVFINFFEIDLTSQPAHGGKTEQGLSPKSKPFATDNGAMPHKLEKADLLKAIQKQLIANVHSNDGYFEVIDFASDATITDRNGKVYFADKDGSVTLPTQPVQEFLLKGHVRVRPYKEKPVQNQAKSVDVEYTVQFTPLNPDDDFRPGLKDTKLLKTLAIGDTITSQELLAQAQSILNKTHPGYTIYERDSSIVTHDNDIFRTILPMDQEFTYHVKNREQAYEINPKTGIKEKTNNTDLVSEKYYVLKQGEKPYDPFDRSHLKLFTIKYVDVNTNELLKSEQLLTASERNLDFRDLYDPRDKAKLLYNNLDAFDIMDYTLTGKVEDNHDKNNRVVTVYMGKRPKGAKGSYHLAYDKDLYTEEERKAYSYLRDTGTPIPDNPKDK

[13] = test system: Streptococcus; test: Group A Streptococcus viability loss, dose response, counter-screen for streptokinase expression inhibitor project, luminescence, BacTiterGlo (AID 1915); format: functional, organism-based;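 also: potency for reduction of bacterial viability or growth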
[14] = test system: Streptococcus sp. 'group A'; test: growth inhibition of control SK(-) GAS strain, dose response, counter-screen for streptokinase expression inhibitor project, luminescence, kanamycin, BacTiterGlo, confirmation (AID 1900); format: functional, organism-based
[15] = target: DNA dC->dU-editing enzyme APOBEC-3G (Homo sapiens, UniProt Q9HC16); format: functional;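 also: Dose-response counterscreen measuring inhibition of APOBEC3G DNA deaminase activity, run while confirming APOBEC3A inhibitors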
[16] = target: DNA dC->dU-editing enzyme APOBEC-3A (Homo sapiens, UniProt P31941); test: Dose Response confirmation of small molecule APOBEC3A DNA Deaminase Inhibitors via a fluorescence-based single-stranded DNA deaminase assay. [Related pubchem assays (depositor defined):AID493011, AID493024]; format: functional
[17] = target: 5-hydroxytryptamine receptor 2A (Mus musculus, UniProt P35363); format: functional, cell-based;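 also: CHO-K1 cells with tagged receptor and beta-arrestin; agonist potency measured as compound-induced activation of the receptor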
[18] = target: Mu-type opioid receptor (Homo sapiens, UniProt P35372); format: functional, cell-based;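 also: U2OS cells with beta-arrestin recruitment to OPRM1 by beta-gal complementation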
[19] = target: T4, Calpain-2 catalytic subunit (Sus scrofa, UniProt P43367); test: pig calpain II inhibitor potency, dose response, biochemical, fluorogenic peptide substrate (AID 1420); format: functional
T4 sequence (P43367 whole entry): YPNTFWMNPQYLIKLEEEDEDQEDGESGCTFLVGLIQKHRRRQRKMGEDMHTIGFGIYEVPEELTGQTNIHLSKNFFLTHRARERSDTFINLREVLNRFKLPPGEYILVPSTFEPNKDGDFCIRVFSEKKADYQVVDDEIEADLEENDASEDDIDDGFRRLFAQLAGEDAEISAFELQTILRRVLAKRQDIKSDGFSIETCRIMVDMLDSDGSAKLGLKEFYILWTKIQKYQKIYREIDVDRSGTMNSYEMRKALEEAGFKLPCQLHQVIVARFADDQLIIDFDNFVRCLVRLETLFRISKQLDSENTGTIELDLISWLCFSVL

[20] = target: T5, Methionyl-tRNA synthetase, putative (Trypanosoma brucei brucei, UniProt Q38C91); format: functional, Trypanosoma brucei brucei strain 927/4 GUTat10.1
T5 sequence (Q38C91 whole entry): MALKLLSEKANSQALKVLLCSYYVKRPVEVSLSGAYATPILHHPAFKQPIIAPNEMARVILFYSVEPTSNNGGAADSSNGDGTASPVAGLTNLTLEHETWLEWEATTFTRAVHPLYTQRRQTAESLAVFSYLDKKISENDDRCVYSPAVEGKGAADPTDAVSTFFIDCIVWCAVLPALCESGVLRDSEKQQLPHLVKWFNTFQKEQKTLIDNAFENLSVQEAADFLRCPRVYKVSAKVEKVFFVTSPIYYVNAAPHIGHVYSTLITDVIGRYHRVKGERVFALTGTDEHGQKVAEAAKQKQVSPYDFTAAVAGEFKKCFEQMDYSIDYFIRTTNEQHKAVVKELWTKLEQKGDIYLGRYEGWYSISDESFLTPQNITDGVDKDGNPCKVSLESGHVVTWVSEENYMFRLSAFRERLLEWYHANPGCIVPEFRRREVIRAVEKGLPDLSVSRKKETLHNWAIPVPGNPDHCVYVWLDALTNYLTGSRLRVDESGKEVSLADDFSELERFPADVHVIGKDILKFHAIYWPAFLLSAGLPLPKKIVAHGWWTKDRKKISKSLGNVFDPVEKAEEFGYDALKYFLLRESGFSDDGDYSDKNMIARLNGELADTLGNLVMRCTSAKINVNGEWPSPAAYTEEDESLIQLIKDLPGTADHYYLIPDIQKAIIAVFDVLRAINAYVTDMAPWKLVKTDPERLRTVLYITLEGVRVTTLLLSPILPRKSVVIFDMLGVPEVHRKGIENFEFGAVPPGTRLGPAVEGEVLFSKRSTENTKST

[21] = Counterscreen for inhibitors of Trypanosoma brucei methionyl tRNA synthetase (MetRS): Luminescence-based cell-based high throughput dose response assay to identify compounds that are cytotoxic to Jurkat human T lymphocyte cells.; format: functional

Chain of Cytochrome P450 3A4 (P08684 whole entry): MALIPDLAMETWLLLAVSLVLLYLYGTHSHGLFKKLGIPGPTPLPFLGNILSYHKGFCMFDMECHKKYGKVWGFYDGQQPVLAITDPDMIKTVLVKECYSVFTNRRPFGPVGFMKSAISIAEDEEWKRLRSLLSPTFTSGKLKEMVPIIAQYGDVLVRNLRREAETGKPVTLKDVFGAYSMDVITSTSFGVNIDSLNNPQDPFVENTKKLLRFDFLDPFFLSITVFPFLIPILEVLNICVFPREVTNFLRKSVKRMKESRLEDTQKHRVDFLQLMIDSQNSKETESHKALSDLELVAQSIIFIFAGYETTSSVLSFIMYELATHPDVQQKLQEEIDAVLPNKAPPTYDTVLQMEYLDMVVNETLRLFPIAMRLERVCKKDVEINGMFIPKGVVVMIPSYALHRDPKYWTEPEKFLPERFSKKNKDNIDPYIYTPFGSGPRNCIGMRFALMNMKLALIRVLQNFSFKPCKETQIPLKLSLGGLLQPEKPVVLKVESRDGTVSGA
Chain of Cytochrome P450 2C19 (P33261 whole entry): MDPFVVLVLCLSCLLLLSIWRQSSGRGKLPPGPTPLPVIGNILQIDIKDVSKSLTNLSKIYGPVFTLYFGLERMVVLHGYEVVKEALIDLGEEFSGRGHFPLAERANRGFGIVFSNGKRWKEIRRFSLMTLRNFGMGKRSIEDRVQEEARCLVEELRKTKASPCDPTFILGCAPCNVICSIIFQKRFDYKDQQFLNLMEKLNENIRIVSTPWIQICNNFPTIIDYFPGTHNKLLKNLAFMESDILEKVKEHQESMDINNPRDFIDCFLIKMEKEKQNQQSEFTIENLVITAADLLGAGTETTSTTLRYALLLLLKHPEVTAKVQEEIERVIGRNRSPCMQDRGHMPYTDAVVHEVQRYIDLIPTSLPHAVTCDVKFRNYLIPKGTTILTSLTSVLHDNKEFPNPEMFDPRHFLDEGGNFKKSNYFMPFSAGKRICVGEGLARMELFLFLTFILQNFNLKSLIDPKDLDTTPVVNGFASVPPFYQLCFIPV
Chain of DNA dC->dU-editing enzyme APOBEC-3G (Q9HC16 whole entry): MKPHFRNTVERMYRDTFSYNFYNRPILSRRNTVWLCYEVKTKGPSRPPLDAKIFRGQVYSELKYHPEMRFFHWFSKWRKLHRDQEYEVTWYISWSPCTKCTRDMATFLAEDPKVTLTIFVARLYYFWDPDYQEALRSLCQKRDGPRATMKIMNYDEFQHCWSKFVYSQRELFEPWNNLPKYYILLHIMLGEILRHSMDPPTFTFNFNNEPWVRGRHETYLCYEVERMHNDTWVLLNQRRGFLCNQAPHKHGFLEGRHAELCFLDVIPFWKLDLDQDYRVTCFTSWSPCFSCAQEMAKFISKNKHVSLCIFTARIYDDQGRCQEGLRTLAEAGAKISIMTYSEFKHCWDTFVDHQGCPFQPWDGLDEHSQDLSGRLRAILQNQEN
Chain of DNA dC->dU-editing enzyme APOBEC-3A (P31941 whole entry): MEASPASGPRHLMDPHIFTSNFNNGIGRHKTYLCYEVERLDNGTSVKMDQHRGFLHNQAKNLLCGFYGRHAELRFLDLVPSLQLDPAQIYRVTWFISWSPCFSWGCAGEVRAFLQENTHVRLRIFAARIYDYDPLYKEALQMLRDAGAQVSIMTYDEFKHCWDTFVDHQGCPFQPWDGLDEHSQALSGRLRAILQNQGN
Chain of Mu-type opioid receptor (P35372 whole entry): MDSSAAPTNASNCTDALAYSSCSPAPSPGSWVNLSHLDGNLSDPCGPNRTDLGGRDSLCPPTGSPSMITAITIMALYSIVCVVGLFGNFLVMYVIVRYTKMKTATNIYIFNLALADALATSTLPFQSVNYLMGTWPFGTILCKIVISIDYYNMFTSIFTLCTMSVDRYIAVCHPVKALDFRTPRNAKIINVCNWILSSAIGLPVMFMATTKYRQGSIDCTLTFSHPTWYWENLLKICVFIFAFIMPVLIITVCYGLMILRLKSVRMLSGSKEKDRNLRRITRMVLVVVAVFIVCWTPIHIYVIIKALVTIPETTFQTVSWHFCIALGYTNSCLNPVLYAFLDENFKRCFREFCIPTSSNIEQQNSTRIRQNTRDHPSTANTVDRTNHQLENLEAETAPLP
Chain of Cytochrome P450 2C9 (P11712 whole entry): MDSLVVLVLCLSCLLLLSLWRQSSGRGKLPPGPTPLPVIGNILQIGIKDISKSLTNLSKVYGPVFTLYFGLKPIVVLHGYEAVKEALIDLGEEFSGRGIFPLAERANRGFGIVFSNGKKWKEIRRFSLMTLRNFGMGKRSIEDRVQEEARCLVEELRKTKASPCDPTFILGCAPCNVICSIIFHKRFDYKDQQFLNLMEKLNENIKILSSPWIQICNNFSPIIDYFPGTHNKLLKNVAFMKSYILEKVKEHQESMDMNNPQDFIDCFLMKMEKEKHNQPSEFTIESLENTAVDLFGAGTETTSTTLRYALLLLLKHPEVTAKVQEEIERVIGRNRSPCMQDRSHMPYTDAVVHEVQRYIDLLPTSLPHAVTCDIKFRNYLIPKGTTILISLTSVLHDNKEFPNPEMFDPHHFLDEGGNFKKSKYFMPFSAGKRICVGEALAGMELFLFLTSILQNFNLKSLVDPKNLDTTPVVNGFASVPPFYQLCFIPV
Chain of 5-hydroxytryptamine receptor 2A (P35363 whole entry): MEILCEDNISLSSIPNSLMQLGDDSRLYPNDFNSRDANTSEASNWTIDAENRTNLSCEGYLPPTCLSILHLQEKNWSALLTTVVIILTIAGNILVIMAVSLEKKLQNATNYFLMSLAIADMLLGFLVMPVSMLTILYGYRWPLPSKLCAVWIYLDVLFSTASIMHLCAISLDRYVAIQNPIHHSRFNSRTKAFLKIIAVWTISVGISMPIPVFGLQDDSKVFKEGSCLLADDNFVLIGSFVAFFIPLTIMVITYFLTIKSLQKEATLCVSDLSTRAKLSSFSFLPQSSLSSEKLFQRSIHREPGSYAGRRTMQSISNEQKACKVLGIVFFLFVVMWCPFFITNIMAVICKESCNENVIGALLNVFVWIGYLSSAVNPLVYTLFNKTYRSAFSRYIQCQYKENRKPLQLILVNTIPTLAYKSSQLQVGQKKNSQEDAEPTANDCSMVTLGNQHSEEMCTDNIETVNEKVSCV

## Cc1cc(C(=O)CN2C(=O)c3ccccc3C2=O)c(C)n1Cc1cccs1
[1]
  AC50: 4.41 µM (active)

## CC(C)(C)C(=O)N1CCN(c2ccc([N+](=O)[O-])c(NCC3CCCO3)c2)CC1 (configuration not stated)
[2]
  AC50: inconclusive
[3]
  AC50: 25.1 µM (inconclusive)
[4]
  AC50: 14.1 µM (inconclusive)

## O=[N+]([O-])c1cccnc1N1CCOCC1
[2]
  AC50: inconclusive
[5]
  AC50: 12.6 µM (inconclusive)
[4]
  AC50: 28.2 µM (inconclusive)

## C=CCn1c(-c2ccc(OC)cc2)nc2ccccc21
[6]
  IC50: 4.36 µM (active)
[7]
  EC50: > 53 µM (inactive)
[8]
  IC50: 4.04 µM (active)

## C=CCn1c(NCCc2ccccc2)nc2c1c(=O)n(C)c(=O)n2C
[6]
  IC50: 1.86 µM (active)
[9]
  AC50: 7.83 µM (active)
[10]
  AC50: 57.2 µM (active)
[11]
  AC50: 1.83 µM (active)
[8]
  IC50: 2.56 µM (active)

## CCOC(=O)c1cnc2cc(Cl)c(OC)cc2c1NCC1CCCO1 (configuration not stated)
[6]
  IC50: 15 µM (inactive)
[8]
  IC50: 2.7 µM (active)

## O=C(c1cccc(F)c1)N1CCC2(CC1)CN(c1ccccc1)C2
[2]
  AC50: inconclusive

## O=C(c1cnccn1)N1CCC2(CC1)CN(C(c1ccccc1)c1ccccc1)C2
[2]
  AC50: inconclusive
[4]
  AC50: 25.1 µM (inconclusive)

## O=C(c1ccncc1)N1CCC2(CC1)CN(C(c1ccccc1)c1ccccc1)C2
[2]
  AC50: inconclusive
[4]
  AC50: 15.8 µM (inconclusive)

## CC(=O)c1cccc(OC(=O)c2ccc3c(=O)n4c(nc3c2)CCC4)c1
[12]
  EC50: > 150 µM (not active)
[13]
  EC50: 14.4 µM (active)
[14]
  EC50: 12.6 µM (active)
[15]
  IC50: 5.35 µM (active)
[16]
  IC50: 6.27 µM (active)

## CCC(c1nnnn1-c1ccc2c(c1)OCCO2)N1CCN(C/C=C/c2ccccc2)CC1 (configuration not stated)
[17]
  EC50: 76.2 µM (inactive)
[18]
  EC50: 92.6 µM (inactive)

## CO/N=C(\c1nonc1N)N1CCN(c2ccc(Cl)cc2[N+](=O)[O-])CC1
[19]
  IC50: > 50 µM (not active)
[20]
  IC50: 119 µM (inactive)
[21]
  IC50: 83.3 µM (inactive)
